Reference: patent US6458978B1, “Fluorous phosphines and process for their preparation” (Atofina Vlissingen B.V., priority 1998, dated 2002)

Experiments:
[1] = Determination of partition coefficients of phosphines in fluorous biphasic systems (ICP-AAS on phosphorus); assay type: physicochemical; settings: 0° C., 1:1 mixture (v/v)
Source text: For applications in fluorous bi-phasic catalysis and for catalyst recycling by fluorous phase extraction techniques an important feature of the fluorous aryl phosphines and the derived catalytic complexes is the partition coefficient P(P=Cfluorous phase/Corganic phase. C=concentration) in fluorous bi-phasic systems.
11. Determination of Partition Coefficients
The partition coefficients were determinded by dissolving a known amount of phosphine (typically between 11 and 60 μmol) in a fluorous biphasic system either consisting of c-C6F11CF3 (2.000±0.002 mL) and n-pentane, n-octane or toluene (2.006±0.002 mL). The resulting mixture was stirred at 25° C. until all solid had dissolved and equilibrated in a water ice bath (1 h). An aliquot (0.500±0.002 mL) was removed from each layer by syringe. Analysis by ICP-AAS on phosphorus gave the amount of phosphine present, with an accuracy of ±0.3 ppm. A conservative estimate of the experimental error in the partition coefficient is ±1 in the last digit.

[2] = Solubility of dppe and dppe derivatives G{m,x} in perfluorinated and non-fluorinated solvents; assay type: physicochemical; settings: for solubility at room temperature, FC-72: FC-72: mixture of perfluorinated hexanes
[3] = Hydrogenation of 1-octene under single phase conditions in α,α,α-trifluorotoluene
Experimental: To be able to directly compare the activities of fluorous derivatives H{1,6} and H{1,8} with non-fluorous [P(C6H4-4-SiMe3)3]3RhCl (H{0}) and the conventional Wilkinson catalyst (PPh3)3RhCl, homogeneous hydrogenation of 1-octene were carried out under single phase conditions in the hybrid solvent α,α,α-trifluorotoluene at atmospheric H2 pressures. Highest rates of hydrogen uptake (14.2 mol.L^−1.h^−1) were measured for 1c at relatively high rhodium and olefine concentrations (entry 2, Table 7). Under these conditions a zero-order dependence in [1-octene] was found up to ca 80% conversion resulting in a linear conversion versus time plot. In all other experiments ([Rh]=4.0-8.0 mM, [1-octene]0=1.46 M) rates of hydrogen uptake were lower (<11 mol.L^−1.h^−1) and conversion versus time plots corresponded to a rate law -d[1-octene]/dt=kobs.[1-octene] for >98% conversion allowing to evaluate catalyst activity in terms of the observed first order rate constant kobs. Since for these experiments the rates of dihydrogen uptake were well below the maximum value obtained in entry 2, diffusion limitation of H2 can be excluded. In addition to kobs, turn over frequencies (TOF in mol.mol^−1.h^−1) were derived from the tangent of a 4^thorder polynomal fit to conversion versus time plots at 25% conversion and serve as a measure of catalyst activity independent of any assumed kinetic relationship with substrate.
Catalytic reactions were carried out under single phase conditions in CF3C6H5 at 80° C. under 1 bar of hydrogen pressure. After >90% conversion (monitored by the H2 uptake) volatiles were distilled off and analyzed by GC. Activities (TOF) were determined for 25% conversion.

[4] = [Rh] 4.0 mM, [1-octene] 1.46 M, T = 80° C., p(H2) = 1 bar, α,α,α-trifluorotoluene
[5] = [Rh] 8.0 mM, [1-octene] 2.92 M, T = 80° C., p(H2) = 1 bar, α,α,α-trifluorotoluene

| Compound | Fluorous partition coefficient P = cfluorous phase/corganic phase, toluene/c-C6F11CF3 [1] | Fluorous partition coefficient P = cfluorous phase/corganic phase, n-octane/c-C6F11CF3 [1] | Fluorous partition coefficient P = cfluorous phase/corganic phase, n-pentane/c-C6F11CF3 [1] | solubility at room temperature, THF [2] | solubility at room temperature, FC-72 [2] | further results |
| --- | --- | --- | --- | --- | --- | --- |
| C[Si](C)(C)c1ccc(P(c2ccc([Si](C)(C)C)cc2)c2ccc([Si](C)(C)C)cc2)cc1 [D{0}, P(C6H4SiMe3-4)3, reference compound] | 0.007 | – | – | – | – | – |
| C[Si](CCC(F)(F)C(F)(F)C(F)(F)C(F)(F)C(F)(F)C(F)(F)C(F)(F)C(F)(F)F)(CCC(F)(F)C(F)(F)C(F)(F)C(F)(F)C(F)(F)C(F)(F)C(F)(F)C(F)(F)F)c1ccc(P(c2ccc([Si](C)(CCC(F)(F)C(F)(F)C(F)(F)C(F)(F)C(F)(F)C(F)(F)C(F)(F)C(F)(F)F)CCC(F)(F)C(F)(F)C(F)(F)C(F)(F)C(F)(F)C(F)(F)C(F)(F)C(F)(F)F)cc2)c2ccc([Si](C)(CCC(F)(F)C(F)(F)C(F)(F)C(F)(F)C(F)(F)C(F)(F)C(F)(F)C(F)(F)F)CCC(F)(F)C(F)(F)C(F)(F)C(F)(F)C(F)(F)C(F)(F)C(F)(F)C(F)(F)F)cc2)cc1 [D{2,8}] | 3.8 | 11 | 3.3 | – | – | – |
| FC(F)(F)C(F)(F)C(F)(F)C(F)(F)C(F)(F)C(F)(F)CC[Si](CCC(F)(F)C(F)(F)C(F)(F)C(F)(F)C(F)(F)C(F)(F)F)(CCC(F)(F)C(F)(F)C(F)(F)C(F)(F)C(F)(F)C(F)(F)F)c1ccc(P(c2ccc([Si](CCC(F)(F)C(F)(F)C(F)(F)C(F)(F)C(F)(F)C(F)(F)F)(CCC(F)(F)C(F)(F)C(F)(F)C(F)(F)C(F)(F)C(F)(F)F)CCC(F)(F)C(F)(F)C(F)(F)C(F)(F)C(F)(F)C(F)(F)F)cc2)c2ccc([Si](CCC(F)(F)C(F)(F)C(F)(F)C(F)(F)C(F)(F)C(F)(F)F)(CCC(F)(F)C(F)(F)C(F)(F)C(F)(F)C(F)(F)C(F)(F)F)CCC(F)(F)C(F)(F)C(F)(F)C(F)(F)C(F)(F)C(F)(F)F)cc2)cc1 [D{3,6}] | 2.1 | 3.7 | 5.3 | – | – | – |
| FC(F)(F)C(F)(F)C(F)(F)C(F)(F)C(F)(F)C(F)(F)C(F)(F)C(F)(F)CC[Si](CCC(F)(F)C(F)(F)C(F)(F)C(F)(F)C(F)(F)C(F)(F)C(F)(F)C(F)(F)F)(CCC(F)(F)C(F)(F)C(F)(F)C(F)(F)C(F)(F)C(F)(F)C(F)(F)C(F)(F)F)c1ccc(P(c2ccc([Si](CCC(F)(F)C(F)(F)C(F)(F)C(F)(F)C(F)(F)C(F)(F)C(F)(F)C(F)(F)F)(CCC(F)(F)C(F)(F)C(F)(F)C(F)(F)C(F)(F)C(F)(F)C(F)(F)C(F)(F)F)CCC(F)(F)C(F)(F)C(F)(F)C(F)(F)C(F)(F)C(F)(F)C(F)(F)C(F)(F)F)cc2)c2ccc([Si](CCC(F)(F)C(F)(F)C(F)(F)C(F)(F)C(F)(F)C(F)(F)C(F)(F)C(F)(F)F)(CCC(F)(F)C(F)(F)C(F)(F)C(F)(F)C(F)(F)C(F)(F)C(F)(F)C(F)(F)F)CCC(F)(F)C(F)(F)C(F)(F)C(F)(F)C(F)(F)C(F)(F)C(F)(F)C(F)(F)F)cc2)cc1 [D{3,8}] | 1.0 | 4.8 | 7.0 | – | – | – |
| C[Si](C)(C)c1ccc(P(CCP(c2ccc([Si](C)(C)C)cc2)c2ccc([Si](C)(C)C)cc2)c2ccc([Si](C)(C)C)cc2)cc1 [G{0}, (Me3SiC6H4-4)2PCH2CH2P(C6H4SiMe3-4)2, reference compound] | – | – | – | + (+: >0.1 g/ml) | − (−: <0.01 g/ml) | – |
| C[Si](CCC(F)(F)C(F)(F)C(F)(F)C(F)(F)C(F)(F)C(F)(F)F)(CCC(F)(F)C(F)(F)C(F)(F)C(F)(F)C(F)(F)C(F)(F)F)c1ccc(P(CCP(c2ccc([Si](C)(CCC(F)(F)C(F)(F)C(F)(F)C(F)(F)C(F)(F)C(F)(F)F)CCC(F)(F)C(F)(F)C(F)(F)C(F)(F)C(F)(F)C(F)(F)F)cc2)c2ccc([Si](C)(CCC(F)(F)C(F)(F)C(F)(F)C(F)(F)C(F)(F)C(F)(F)F)CCC(F)(F)C(F)(F)C(F)(F)C(F)(F)C(F)(F)C(F)(F)F)cc2)c2ccc([Si](C)(CCC(F)(F)C(F)(F)C(F)(F)C(F)(F)C(F)(F)C(F)(F)F)CCC(F)(F)C(F)(F)C(F)(F)C(F)(F)C(F)(F)C(F)(F)F)cc2)cc1 [G{2,6}] | – | – | – | + (+: >0.1 g/ml) | + (+: >0.1 g/ml) | – |
| C[Si](C)(C)c1ccc([PH](c2ccc([Si](C)(C)C)cc2)(c2ccc([Si](C)(C)C)cc2)[Rh]([Cl])([PH](c2ccc([Si](C)(C)C)cc2)(c2ccc([Si](C)(C)C)cc2)c2ccc([Si](C)(C)C)cc2)[PH](c2ccc([Si](C)(C)C)cc2)(c2ccc([Si](C)(C)C)cc2)c2ccc([Si](C)(C)C)cc2)cc1 [H{0}, [P(C6H4-4-SiMe3)3]3RhCl] | – | – | – | – | – | TOF(25%), turn over frequency at 25% conversion [3, 4]: 1610 h⁻¹; TON (mole of olefin/mole of Rh) [3, 4]: 336; conversion [3, 4]: 92%; kobs (first order rate constant) [3, 4]: 7.5(2) h^−1; TOF(25%), turn over frequency at 25% conversion [3, 5]: 1910 h⁻¹; TON (mole of olefin/mole of Rh) [3, 5]: 361; conversion [3, 5]: 99%; kobs (zero order in olefin up to 80% conversion) [3, 5]: ^eZero order in olefin up to 80% conversion, kobs = 14.2(1) mol.L^−1.h^−1.; activity relative to Wilkinson's catalyst ([3]; derived from Table 7): > 1.5 times; Highest rate of hydrogen uptake ([3]; relatively high rhodium and olefine concentrations (entry 2, Table 7)): 14.2 mol/L/h |

Further lines, with some results ahead:

| Fluorous partition coefficient P = cfluorous phase/corganic phase, toluene/c-C6F11CF3 [1] | Fluorous partition coefficient P = cfluorous phase/corganic phase, n-octane/c-C6F11CF3 [1] | Fluorous partition coefficient P = cfluorous phase/corganic phase, n-pentane/c-C6F11CF3 [1] | solubility at room temperature, THF [2] | solubility at room temperature, FC-72 [2] | Compound | further results |
| --- | --- | --- | --- | --- | --- | --- |
| 0.13 | 0.42 | 0.53 | – | – | C[Si](C)(CCC(F)(F)C(F)(F)C(F)(F)C(F)(F)C(F)(F)C(F)(F)F)c1ccc(P(c2ccc([Si](C)(C)CCC(F)(F)C(F)(F)C(F)(F)C(F)(F)C(F)(F)C(F)(F)F)cc2)c2ccc([Si](C)(C)CCC(F)(F)C(F)(F)C(F)(F)C(F)(F)C(F)(F)C(F)(F)F)cc2)cc1 [D{1,6}] | – |
| 1.06 | 1.4 | 0.78 | – | – | C[Si](C)(CCC(F)(F)C(F)(F)C(F)(F)C(F)(F)C(F)(F)C(F)(F)C(F)(F)C(F)(F)F)c1ccc(P(c2ccc([Si](C)(C)CCC(F)(F)C(F)(F)C(F)(F)C(F)(F)C(F)(F)C(F)(F)C(F)(F)C(F)(F)F)cc2)c2ccc([Si](C)(C)CCC(F)(F)C(F)(F)C(F)(F)C(F)(F)C(F)(F)C(F)(F)C(F)(F)C(F)(F)F)cc2)cc1 [D{1,8}] | – |
| 3.8 | 6.6 | 2.0 | – | – | C[Si](CCC(F)(F)C(F)(F)C(F)(F)C(F)(F)C(F)(F)C(F)(F)F)(CCC(F)(F)C(F)(F)C(F)(F)C(F)(F)C(F)(F)C(F)(F)F)c1ccc(P(c2ccc([Si](C)(CCC(F)(F)C(F)(F)C(F)(F)C(F)(F)C(F)(F)C(F)(F)F)CCC(F)(F)C(F)(F)C(F)(F)C(F)(F)C(F)(F)C(F)(F)F)cc2)c2ccc([Si](C)(CCC(F)(F)C(F)(F)C(F)(F)C(F)(F)C(F)(F)C(F)(F)F)CCC(F)(F)C(F)(F)C(F)(F)C(F)(F)C(F)(F)C(F)(F)F)cc2)cc1 [D{2,6}, P[C6H4Si(CH2CH2C6F13)2Me-4]3] | – |
| – | – | – | + (+: >0.1 g/ml) | − (−: <0.01 g/ml) | C[Si](C)(CCC(F)(F)C(F)(F)C(F)(F)C(F)(F)C(F)(F)C(F)(F)F)c1ccc(P(CCP(c2ccc([Si](C)(C)CCC(F)(F)C(F)(F)C(F)(F)C(F)(F)C(F)(F)C(F)(F)F)cc2)c2ccc([Si](C)(C)CCC(F)(F)C(F)(F)C(F)(F)C(F)(F)C(F)(F)C(F)(F)F)cc2)c2ccc([Si](C)(C)CCC(F)(F)C(F)(F)C(F)(F)C(F)(F)C(F)(F)C(F)(F)F)cc2)cc1 [G{1,6}] | solubility at room temperature, toluene [2]: + (+: >0.1 g/ml) |
| – | – | – | − (−: <0.01 g/ml) | − (−: <0.01 g/ml) | C[Si](C)(CCC(F)(F)C(F)(F)C(F)(F)C(F)(F)C(F)(F)C(F)(F)C(F)(F)C(F)(F)F)c1ccc(P(CCP(c2ccc([Si](C)(C)CCC(F)(F)C(F)(F)C(F)(F)C(F)(F)C(F)(F)C(F)(F)C(F)(F)C(F)(F)F)cc2)c2ccc([Si](C)(C)CCC(F)(F)C(F)(F)C(F)(F)C(F)(F)C(F)(F)C(F)(F)C(F)(F)C(F)(F)F)cc2)c2ccc([Si](C)(C)CCC(F)(F)C(F)(F)C(F)(F)C(F)(F)C(F)(F)C(F)(F)C(F)(F)C(F)(F)F)cc2)cc1 [G{1,8}] | solubility at room temperature, toluene [2]: − (−: <0.01 g/ml) |
